Experiments:
[1] = test system: Hepatitis B virus; assay: Cytotoxic activity was determined against Hepatitis B virus (HBV) at 10 uM using HepG2-derived 2.2.15 cell lines; format: functional; conditions: HepG2 2.2.15
[2] = test system: Hepatitis B virus; assay: Inhibitory activity was determined against Hepatitis B virus (HBV) at 10 uM using HepG2-derived 2.2.15 cell lines; format: functional, organism-based

Nc1nc(O)c2ncn([C@H]3C[C@H](O)[C@@H](COP(=O)(O)O[C@@H]4C[C@@H](n5cnc6c(N)ncnc65)O[C@H]4COP(=O)(O)NC4CCCN4)O3)c2n1 (some centres undefined)
CC50 [1]: > 300 µM
IC50 [2]: 2.1 µM

COc1ccc(CCNP(=O)(O)OC[C@H]2O[C@@H](n3ccc(=O)[nH]c3=O)[C@H](OC)[C@@H]2OP(=O)(O)OC[C@H]2O[C@@H](n3cnc4c(N)ncnc43)C[C@@H]2O)cc1OC
CC50 [1]: > 300 µM
IC50 [2]: 4.4 µM

Source: ChEMBL document CHEMBL1134806, “Parallel solid-phase synthesis of nucleoside phosphoramidate libraries” (Bioorg Med Chem Lett, 2001)
